Data from US20070219180A1, “Muscle Relaxtion Accelerator and Therapeutic Agent for Muscular Tissue Diseases Such as Muscle Relaxation Failure” (priority 2004, published 2007).

Biological target: T1, troponin I and the actin-tropomyosin complex (Homo sapiens, UniProt P19429)
T1 construct: human myocardium-derived troponin I with a molecular weight of 24 kDa; purchased Calbiochem Inc (troponin I); Abcam PLC (troponin C); SIGMA (actin, tropomyosin); host or cells: troponin I from human myocardium
Test: Experiments 6 and 7: affinity of troponin I and the actin-tropomyosin complex (co-precipitation at defined Ca concentration)
Type: binding
Experimental: A solution of 0.4 μg of troponin I (Calbiochem Inc) and 0.54 μg of troponin C (Abcam PLC) was added to 23 μl of distilled water, distributed to 4 test tubes, and centrifuged at 100,000 g for 1 hour (HITACHI Himac 120FC), and 20 μl of the resulting supernatant was collected and stored at 4° C. Then, 50 μl of 600 mM KCl solution, 50 μl of 200 mM MOPS (3-morpholinopropanesulfonic acid) [3-N (morpholino) propanesulfonic acid] (DOJINDO) solution, 50 μl of 20 mM MgCl2 solution, 5 μl of 10 mg/ml pepstatin A (SIGMA) solution, and 50 μl of 150 mM 2-mercaptoethanol (SIGMA) were added as a reaction solution to 99.4 μl of distilled water, and distributed to another 4 test tubes. Next, 3.2 μl of 1 mg/ml actin (SIGMA) and 2.4 μl of 1 mg/ml tropomyosin (SIGMA) were added and mixed, and the mixture was then centrifuged at 2000 g for 5 minutes at 25° C. using a centrifuge (HITACHI Himac CF7D2). The resulting supernatant was put into 4 new test tubes, 50 μl of 50 mM ATP (adenosine 5′-triphosphate) solution was added, and the solution was incubated at 25° C. with mixing for 30 minutes.
Next, 20 μl of the 100,000 g supernatant of troponin I and troponin C which was previously prepared was added to each test tube, and incubated at 25° C. with mixing for 30 minutes. Distilled water alone or 50 μl of a test solution in which the final concentration of the compound was adjusted to 10^−7, 10^−6 and 10^−5 M was added, and the resulting solution was incubated at 25° C. with mixing for 30 minutes.
[…] The solution was incubated at 25° C. with intermittent mixing for 60 minutes, and then centrifuged at 100,000 g for 120 minutes at 25° C. using a centrifuge (HITACHI Himac 120FC: brand name).
After centrifugation, the supernatant was removed, 1 ml of the reaction liquid (excluding Ca^2+ and the drug) was gently added so as not to suspend any precipitate, and the precipitate was again removed by suction; the procedure was repeated twice and the precipitate washed 3 times in total.
The washing solution was removed completely, 20 μl of a sample buffer for polyacrylamide gel electrophoresis (SDS-PAGE) was added and mixed well, the precipitate was suspended and heated for 5 minutes at 95° C., and then poured into a PAG MINI “No. 1” 10/20 gel (Daiichi Pure Chemicals Co., Ltd) and electrophoresized for about 1 hour at 40 mA. After electrophoresis, the suspension was silver-stained using “Daiichi” 2D-silver staining reagent (Daiichi Pure Chemicals Co., Ltd), and washed and dried. Finally, the suspension was scanned (EPSON ES-8500 scanner: brand name) and analyzed (Image J software: brand name).
In this experiment, at a calcium concentration in the test tube of 10^−6 M, the amount of troponin I precipitated in the absence of the compound was set at 1.0. Relatively, the amount of co-precipitation in the presence of 10^−7, 10^−6 and 10^−5 M concentrations of the compound was 1.4, 3.4, and 5.4, respectively; therefore, it was confirmed that the amount of troponin I precipitate increased with an increase in the compound concentration. The actin used in this experiment was swine skeletal muscle-derived actin with a molecular weight of 43 kDa, and was purchased from SIGMA. Tropomyosin used in this experiment was gizzard-derived tropomyosin with a molecular weight of 36 kDa, and was purchased from SIGMA. Troponin I used in this experiment was human myocardium-derived troponin I with a molecular weight of 24 kDa, and was purchased from Calbiochem Inc. Troponin C used in this experiment was human myocardium recombinant-derived troponin C with a molecular weight of 18 kDa, and was purchased from Abcam PLC. These proteins were separated by SDS-polyacrylamide gel electrophoresis and each band was clearly identifiable. […]

[1] = Ca 10^−6 M, the compound 10^−5 M

Structure (SMILES): COc1ccc2c(c1)CN(C(=O)CCN1CCC(Cc3ccccc3)CC1)CCS2 [the compound, 4-[3-(4-benzylpiperidine-1-yl)propionyl]-7-methoxy-2,3,4,5-tetrahydro-1,4-benzothiazepine]
- Amount of precipitate of troponin I, Ratio (Ca 10^−8 M = 1.0) (Ca 10^−5 M, the compound 10^−5 M): 0.78
- Amount of precipitate of troponin I, Ratio (Ca 10^−8 M = 1.0) [1]: 0.81
- Amount of precipitate of troponin I, Ratio (no compound = 1.0) [1]: 5.4
- Amount of precipitate of troponin I, Ratio (no compound = 1.0) (Ca 10^−6 M, the compound 10^−6 M): 3.4
- Amount of precipitate of troponin I, Ratio (no compound = 1.0) (Ca 10^−6 M, the compound 10^−7 M): 1.4
- Amount of precipitate of troponin I, Ratio (Ca 10^−8 M = 1.0) (Ca 10^−7 M, the compound 10^−5 M): 0.94
- Amount of precipitate of troponin I, Ratio (Ca 10^−8 M = 1.0) (Ca 10^−8 M, the compound 10^−5 M (reference set at 1.0)): 1.0
